Patent publication US7282602B2, “Medicinal disulfide salts” (BioNumerik Pharmaceuticals, Inc., priority 2004, dated 2007)

Experiment: toxicity in vivo (lethality)
Description: The formula I compounds may be administered in any convenient dosage form, with the preferred formulations adapted for oral (PO) or intravenous (IV) administration. Since the water solubility of the compounds exceeds 200 mg/mL, formulations are not anticipated to be difficult to make.

Structure (SMILES): O=S(=O)([O-])CCSSCCS(=O)(=O)[O-].[Na+].[Na+] [Dimesna, Disodium 2,2′-dithiobis ethane sulfonate]
- toxicity compared with common table salt: less toxic than common table salt
- amount not causing a single death in vivo (IV): exceeding 5000 mg/kg
